For data set [1], the system named is Staphylococcus aureus 101, MRSA and Trimethoprim-resistant; clinical isolate. Description: MIC against Staphylococcus aureus 101. The class given is cell-based. The note with it: read-out: MIC Sa101. As to the method: (§1) The following Table contains inhibitory concentrations determined in the above test for representative members of the class of compound defined by formula I. The following microorganisms were tested: […]
Col. 2: MIC Sa101; μg/ml (Staphylococcus aureus 101, MRSA^*)— and Trimethoprim-resistant; clinical isolate, stored at −80° C.)
^*) MRSA=Methicillin Resistant Staphylococcus Aureus

The target in data set [2] is T1, purified DHFR of strain Sp1/1 of Streptococcus pneumoniae (Streptococcus pneumoniae, UniProt Q54801).
T1 sequence (Q54801 1-168): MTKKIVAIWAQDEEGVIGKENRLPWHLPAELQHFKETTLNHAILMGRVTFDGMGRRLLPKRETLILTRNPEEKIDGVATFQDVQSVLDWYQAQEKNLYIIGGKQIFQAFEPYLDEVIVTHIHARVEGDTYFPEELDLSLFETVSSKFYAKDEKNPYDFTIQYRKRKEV
The note with it: read-out: DHFR Spn1/1 (IC50); purified DHFR of S. pneumoniae strain Spn1/1; IC50 determined graphically.
Excerpt: 3: DHFR Spn1/1; μM—the IC50-values in μM against the purified DHFR of the above strain Sp1/1 of Streptococcus pneumoniae.

The target of data set [3] is purified DHFR of the strain 157/4696 (highly trimethoprim-resistant; clinical isolate) of Staphylococcus aureus (Staphylococcus aureus, UniProt P13955). Description: biochemical.
Excerpt: The inhibition of the enzyme was taken as a measurement for the antibacterial activity.
For data set [4], the system named is Streptococcus pneumoniae 1/1, Trimethoprim- and Penicillin-resistant, Serotype 6; clinical isolate. Kind of data set: MIC against Streptococcus pneumoniae 1/1. The format is cell-based. Conditions: read-out: MIC Spn1/1. The method, then: as §1
Col. 1: MIC Spn1/1; μg/ml (Streptococcus pneumoniae 1/1, Trimethoprim- and Penicillin-resistant, Serotype 6; clinical isolate, stored at −80° C.)
Lit.: H. Locher et al., Can. J. Infect. Dis.6: Suppl. C, p 469C.

SMILES strings stand for the structures. In brackets after ≈: the same amount, converted by molar mass.

Turning to `CCCC1=CC(C)(C)Oc2c(OCC)cc(Cc3cnc(N)nc3N)cc21` [Example 10, 5-(8-Ethoxy-2,2-dimethyl-4-propyl-2H-chromen-6-ylmethyl) -pyrimidine-2,4-diamine], the melting point fell in the range of 208 to 209 °C. Also, in data set [1], the MIC amounted to 4 µg/mL (≈ 10.9 µM). In addition, the IC50 in data set [2] came out at 0.015 µM. In data set [3], this compound registered an IC50 of 1.1 µM. The MIC in data set [4] amounted to 2 µg/mL (≈ 5.43 µM).

The compound `COc1cc(Cc2cnc(N)nc2N)cc2c1OC(C)(C)C=C2Cl` [Example 6, 5-(4-Chloro-8-methoxy-2,2-dimethyl-2H-chromen-6-ylmethyl)-pyrimidine-2,4-diamine] displayed a melting point of 221 to 222 °C. Further, in data set [1], the MIC is 1 µg/mL (≈ 2.88 µM). The IC50 in data set [2] stood at 0.11 µM. The IC50 in data set [3] stood at 0.38 µM. Moreover, the MIC in data set [4] stood at 4 µg/mL (≈ 11.5 µM).

For `CCOc1cc(Cc2cnc(N)nc2N)cc2c1OC(C)(C)C=C2C` [Example 8, 5-(8-Ethoxy-2,2,4-trimethyl-2H-chromen-6-ylmethyl)-pyrimidine-2,4-diamine], the melting point lay in the range of 216 to 218 °C. The MIC in data set [1] turned out to be 4 µg/mL (≈ 11.7 µM). Moreover, the IC50 in data set [2] is 0.015 µM. The compound further displayed an IC50 in data set [3] of 1.3 µM. Besides, in data set [4], the MIC came to 2 µg/mL (≈ 5.87 µM).

On to `COc1cc(Cc2cnc(N)nc2N)cc2c1OC(C)(C)C=C2Br` [Example 2, 5-(4-Bromo-8-methoxy-2,2-dimethyl-2H-chromen-6-ylmethyl) -pyrimidine-2,4-diamine], for which the values for the MIC in data set [1] and in data set [4] were 1 µg/mL (≈ 2.56 µM) and 4 µg/mL (≈ 10.2 µM), respectively. Moreover, the results for the IC50 in data set [2] and in data set [3] were 0.052 µM and 0.15 µM, respectively.

As for `CCOc1cc(Cc2cnc(N)nc2N)cc2c1OC(C)(C)C=C2CC` [Example 9, 5-(8-Ethoxy-4-ethyl-2,2-dimethyl-2H-chromen-6-ylmethyl)-pyrimidine-2,4-diamine], the melting point was 222 to 225 °C (dec.). In data set [1], the MIC was 4 µg/mL (≈ 11.3 µM). For the same compound, the IC50 in data set [2] is 0.012 µM. The same compound displayed an IC50 in data set [3] of 0.67 µM. Also, in data set [4], the MIC was 1 µg/mL (≈ 2.82 µM).

As to `COCC#CC1=CC(C)(C)Oc2c(OC)cc(Cc3cnc(N)nc3N)cc21` [Example 16, 5-[8-Methoxy-4-(3-methoxy-prop-1-ynyl)-2,2-dimethyl-2H-chromen-6-ylmethyl]-pyrimidine-2,4-diamine], the melting point lay in the range of 236 to 237 °C. Further, the MIC in data set [1] was found to be 4 µg/mL (≈ 10.5 µM). The IC50 in data set [2] turned out to be 0.68 µM. In data set [3], this compound yielded an IC50 of 0.22 µM. Besides, the MIC in data set [4] is more than 8 µg/mL.

Take `CCOc1cc(Cc2cnc(N)nc2N)cc2c1OC1(C=C2Br)CCC1` [Example 30, 5-[(4-Bromo-8-ethoxyspiro[2H-1-benzopyran-2,1′-cyclobutan]-6-yl)methyl]-2,4-pyrimidinediamine]: the melting point was 213 to 214 °C. Moreover, the MIC in data set [1] worked out at 2 µg/mL (≈ 4.79 µM). The IC50 in data set [2] was found to be 0.0089 µM. Further, the IC50 in data set [3] was determined as 0.21 µM. The MIC in data set [4] came to 4 µg/mL (≈ 9.59 µM).

(Values after patent publication US6818649B2, “Chromenylmethyl pyrimidinediamines as antibacterial agents” (Basilea Pharmaceutica AG, priority 2000, dated 2004).)
